± gives the uncertainty stated by the source.
Experiment: xn = mol fraction of the nth substance listed
Settings: 100 kPa

OC1CCCCCCC1 + OCCO
viscosity (293.15 K, x1 = 0.0094): 20.68 ± 3 mPa·s | viscosity (293.15 K, x1 = 0.0394): 21.39 ± 3 mPa·s | viscosity (293.15 K, x1 = 0.0577): 21.55 ± 3 mPa·s | viscosity (293.15 K, x1 = 0.0877): 21.87 ± 3 mPa·s | viscosity (293.15 K, x1 = 0.0999): 21.97 ± 3 mPa·s | viscosity (293.15 K, x1 = 0.196): 23.21 ± 3 mPa·s | viscosity (293.15 K, x1 = 0.3048): 24.11 ± 3 mPa·s | viscosity (293.15 K, x1 = 0.3968): 28.39 ± 3 mPa·s | viscosity (293.15 K, x1 = 0.4992): 32.09 ± 3.1 mPa·s | viscosity (293.15 K, x1 = 0.5876): 42.39 ± 3.1 mPa·s | viscosity (293.15 K, x1 = 0.6991): 59.53 ± 3.1 mPa·s | viscosity (293.15 K, x1 = 0.7995): 87.86 ± 3.4 mPa·s | viscosity (293.15 K, x1 = 0.8976): 130 ± 4.9 mPa·s | viscosity (298.15 K, x1 = 0.0094): 16.94 ± 3 mPa·s | viscosity (298.15 K, x1 = 0.0394): 17.13 ± 3 mPa·s | viscosity (298.15 K, x1 = 0.0577): 17.25 ± 3 mPa·s | viscosity (298.15 K, x1 = 0.0877): 17.42 ± 3 mPa·s | viscosity (298.15 K, x1 = 0.0999): 17.51 ± 3 mPa·s | viscosity (298.15 K, x1 = 0.196): 18.26 ± 3 mPa·s | viscosity (298.15 K, x1 = 0.3048): 20.09 ± 3 mPa·s | viscosity (298.15 K, x1 = 0.3968): 21.73 ± 3 mPa·s | viscosity (298.15 K, x1 = 0.4992): 25.61 ± 3 mPa·s | viscosity (298.15 K, x1 = 0.5876): 31.92 ± 3.1 mPa·s | viscosity (298.15 K, x1 = 0.6991): 45.81 ± 3.1 mPa·s | viscosity (298.15 K, x1 = 0.7995): 66.12 ± 3.1 mPa·s | viscosity (298.15 K, x1 = 0.8976): 94 ± 3.6 mPa·s | viscosity (303.15 K, x1 = 0.0094): 13.8 ± 3 mPa·s | viscosity (303.15 K, x1 = 0.0394): 13.91 ± 3 mPa·s | viscosity (303.15 K, x1 = 0.0577): 13.99 ± 3 mPa·s | viscosity (303.15 K, x1 = 0.0877): 14.13 ± 3 mPa·s | viscosity (303.15 K, x1 = 0.0999): 14.16 ± 3 mPa·s | viscosity (303.15 K, x1 = 0.196): 14.61 ± 3 mPa·s | viscosity (303.15 K, x1 = 0.3048): 15.23 ± 3 mPa·s | viscosity (303.15 K, x1 = 0.3968): 16.84 ± 3 mPa·s | viscosity (303.15 K, x1 = 0.4992): 20.38 ± 3 mPa·s | viscosity (303.15 K, x1 = 0.5876): 25.48 ± 3 mPa·s | viscosity (303.15 K, x1 = 0.6991): 35.59 ± 3.1 mPa·s | viscosity (303.15 K, x1 = 0.7995): 49.1 ± 3.1 mPa·s | viscosity (303.15 K, x1 = 0.8976): 71 ± 3.2 mPa·s | viscosity (308.15 K, x1 = 0.0094): 11.25 ± 3 mPa·s | viscosity (308.15 K, x1 = 0.0394): 11.23 ± 3 mPa·s | viscosity (308.15 K, x1 = 0.0577): 11.26 ± 3 mPa·s | viscosity (308.15 K, x1 = 0.0877): 11.32 ± 3 mPa·s | viscosity (308.15 K, x1 = 0.0999): 11.34 ± 3 mPa·s | viscosity (308.15 K, x1 = 0.196): 11.54 ± 3 mPa·s | viscosity (308.15 K, x1 = 0.3048): 11.92 ± 3 mPa·s | viscosity (308.15 K, x1 = 0.3968): 13.28 ± 3 mPa·s | viscosity (308.15 K, x1 = 0.4992): 16.11 ± 3 mPa·s | viscosity (308.15 K, x1 = 0.5876): 19.91 ± 3 mPa·s | viscosity (308.15 K, x1 = 0.6991): 27 ± 3 mPa·s | viscosity (308.15 K, x1 = 0.7995): 35.98 ± 3.1 mPa·s | viscosity (308.15 K, x1 = 0.8976): 49.5 ± 3.1 mPa·s | viscosity (313.15 K, x1 = 0.0094): 9.588 ± 3 mPa·s | viscosity (313.15 K, x1 = 0.0394): 9.61 ± 3 mPa·s | viscosity (313.15 K, x1 = 0.0577): 9.627 ± 3 mPa·s | viscosity (313.15 K, x1 = 0.0877): 9.649 ± 3 mPa·s | viscosity (313.15 K, x1 = 0.0999): 9.664 ± 3 mPa·s | viscosity (313.15 K, x1 = 0.196): 9.751 ± 3 mPa·s | viscosity (313.15 K, x1 = 0.3048): 9.992 ± 3 mPa·s | viscosity (313.15 K, x1 = 0.3968): 11.14 ± 3 mPa·s | viscosity (313.15 K, x1 = 0.4992): 13.47 ± 3 mPa·s | viscosity (313.15 K, x1 = 0.5876): 16.45 ± 3 mPa·s | viscosity (313.15 K, x1 = 0.6991): 21.75 ± 3 mPa·s | viscosity (313.15 K, x1 = 0.7995): 28.14 ± 3 mPa·s | viscosity (313.15 K, x1 = 0.8976): 39 ± 3.1 mPa·s | viscosity (318.15 K, x1 = 0.0094): 7.888 ± 3 mPa·s | viscosity (318.15 K, x1 = 0.0394): 7.891 ± 3 mPa·s | viscosity (318.15 K, x1 = 0.0577): 7.892 ± 3 mPa·s | viscosity (318.15 K, x1 = 0.0877): 7.894 ± 3 mPa·s | viscosity (318.15 K, x1 = 0.0999): 7.895 ± 3 mPa·s | viscosity (318.15 K, x1 = 0.196): 7.903 ± 3 mPa·s | viscosity (318.15 K, x1 = 0.3048): 7.975 ± 3 mPa·s | viscosity (318.15 K, x1 = 0.3968): 9.079 ± 3 mPa·s | viscosity (318.15 K, x1 = 0.4992): 10.83 ± 3 mPa·s | viscosity (318.15 K, x1 = 0.5876): 13.04 ± 3 mPa·s | viscosity (318.15 K, x1 = 0.6991): 16.79 ± 3 mPa·s | viscosity (318.15 K, x1 = 0.7995): 21.15 ± 3 mPa·s | viscosity (318.15 K, x1 = 0.8976): 28 ± 3 mPa·s

— the CheMixHub viscosity set
